Assay results as given in patent publication US12448389B2, “BRM targeting compounds and associated methods of use” (Prelude Therapeutics Incorporated, priority 2020, dated 2025).

Legend:
SMARCA2-HiBiT = target: T1, SMARCA2-HiBiT (Homo sapiens, UniProt P51531); test: SMARCA2 HiBiT degradation assay in HeLa cells; assay type: cell-based; details: 18 hours incubation; for DC50: read-out: HeLa_HiBit-SM2 DC50; for Dmax: HeLa, read-out: HeLa-HiBit-SM2 Dmax (%)
T1 construct: SMARCA2-HiBiT knock-in Hela monoclonal cell (CS302366); host or cells: HeLa monoclonal knock-in line (CRISPR HiBiT knock-in at the endogenous locus, heterozygous)
T1 sequence (P51531 whole entry): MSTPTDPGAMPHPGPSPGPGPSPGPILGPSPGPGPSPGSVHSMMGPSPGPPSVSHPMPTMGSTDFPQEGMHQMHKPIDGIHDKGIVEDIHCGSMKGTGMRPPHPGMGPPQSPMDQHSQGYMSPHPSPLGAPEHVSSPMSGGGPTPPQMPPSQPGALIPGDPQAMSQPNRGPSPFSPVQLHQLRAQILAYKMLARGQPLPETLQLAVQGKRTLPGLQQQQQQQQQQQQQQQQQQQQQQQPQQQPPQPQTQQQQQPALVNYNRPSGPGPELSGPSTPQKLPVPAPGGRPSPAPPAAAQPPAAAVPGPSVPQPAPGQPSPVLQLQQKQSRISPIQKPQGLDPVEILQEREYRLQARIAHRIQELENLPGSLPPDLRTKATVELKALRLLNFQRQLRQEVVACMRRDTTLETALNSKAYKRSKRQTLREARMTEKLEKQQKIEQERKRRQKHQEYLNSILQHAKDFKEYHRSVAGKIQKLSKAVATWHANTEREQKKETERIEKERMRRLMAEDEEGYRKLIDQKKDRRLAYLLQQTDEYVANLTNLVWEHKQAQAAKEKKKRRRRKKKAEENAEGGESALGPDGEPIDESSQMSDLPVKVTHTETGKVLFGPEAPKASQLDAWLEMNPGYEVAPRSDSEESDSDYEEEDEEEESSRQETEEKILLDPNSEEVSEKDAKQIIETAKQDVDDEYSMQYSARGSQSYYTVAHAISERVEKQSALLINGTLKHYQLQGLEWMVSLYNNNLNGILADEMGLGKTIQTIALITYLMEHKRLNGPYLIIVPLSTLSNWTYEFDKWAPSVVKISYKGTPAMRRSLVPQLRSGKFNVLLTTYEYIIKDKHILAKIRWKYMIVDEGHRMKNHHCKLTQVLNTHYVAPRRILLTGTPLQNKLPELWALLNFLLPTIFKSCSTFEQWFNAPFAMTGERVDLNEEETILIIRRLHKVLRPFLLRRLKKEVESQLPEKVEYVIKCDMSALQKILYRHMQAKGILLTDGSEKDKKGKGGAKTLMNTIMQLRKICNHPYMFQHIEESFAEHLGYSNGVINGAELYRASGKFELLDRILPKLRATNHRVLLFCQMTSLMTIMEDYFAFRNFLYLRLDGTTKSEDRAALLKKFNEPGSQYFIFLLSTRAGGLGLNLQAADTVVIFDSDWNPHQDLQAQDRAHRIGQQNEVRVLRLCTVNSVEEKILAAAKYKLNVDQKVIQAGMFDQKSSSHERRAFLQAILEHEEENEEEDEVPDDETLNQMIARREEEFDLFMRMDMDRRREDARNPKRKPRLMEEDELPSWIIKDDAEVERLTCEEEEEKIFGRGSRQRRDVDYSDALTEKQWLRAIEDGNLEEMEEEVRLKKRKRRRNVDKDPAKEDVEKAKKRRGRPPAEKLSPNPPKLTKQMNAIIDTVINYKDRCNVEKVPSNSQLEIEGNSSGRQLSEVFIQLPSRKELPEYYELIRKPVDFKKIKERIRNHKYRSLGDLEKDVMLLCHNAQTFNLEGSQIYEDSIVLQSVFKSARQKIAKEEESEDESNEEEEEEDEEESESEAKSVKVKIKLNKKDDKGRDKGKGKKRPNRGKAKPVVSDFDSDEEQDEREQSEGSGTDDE
Procedure, shortened: (§1)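 HeLa monoclonal lines with heterozygous HiBiT knock-in were seeded at 2500 cells/well in EMEM with 10% FBS and treated with compound for 18 h at 37 °C. Remaining tagged protein was measured by Nano-Glo HiBiT lytic luminescence after 30–60 min at RT, and values came from curve fitting.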

SMARCA4-HiBiT = target: T2, SMARCA4-HiBiT (Homo sapiens, UniProt P51532); test: SMARCA4 HiBiT degradation assay in HeLa cells; assay type: cell-based; details: 18 hours incubation; for DC50: read-out: HeLa-HiBit-SM4 DC50; for Dmax: HeLa, read-out: HeLa-HiBit-SM4 Dmax (%)
T2 construct: SMARCA4-HiBiT knock-in Hela monoclonal cell (CS3023226); host or cells: HeLa monoclonal knock-in line (CRISPR HiBiT knock-in at the endogenous locus, heterozygous)
T2 sequence (P51532 whole entry): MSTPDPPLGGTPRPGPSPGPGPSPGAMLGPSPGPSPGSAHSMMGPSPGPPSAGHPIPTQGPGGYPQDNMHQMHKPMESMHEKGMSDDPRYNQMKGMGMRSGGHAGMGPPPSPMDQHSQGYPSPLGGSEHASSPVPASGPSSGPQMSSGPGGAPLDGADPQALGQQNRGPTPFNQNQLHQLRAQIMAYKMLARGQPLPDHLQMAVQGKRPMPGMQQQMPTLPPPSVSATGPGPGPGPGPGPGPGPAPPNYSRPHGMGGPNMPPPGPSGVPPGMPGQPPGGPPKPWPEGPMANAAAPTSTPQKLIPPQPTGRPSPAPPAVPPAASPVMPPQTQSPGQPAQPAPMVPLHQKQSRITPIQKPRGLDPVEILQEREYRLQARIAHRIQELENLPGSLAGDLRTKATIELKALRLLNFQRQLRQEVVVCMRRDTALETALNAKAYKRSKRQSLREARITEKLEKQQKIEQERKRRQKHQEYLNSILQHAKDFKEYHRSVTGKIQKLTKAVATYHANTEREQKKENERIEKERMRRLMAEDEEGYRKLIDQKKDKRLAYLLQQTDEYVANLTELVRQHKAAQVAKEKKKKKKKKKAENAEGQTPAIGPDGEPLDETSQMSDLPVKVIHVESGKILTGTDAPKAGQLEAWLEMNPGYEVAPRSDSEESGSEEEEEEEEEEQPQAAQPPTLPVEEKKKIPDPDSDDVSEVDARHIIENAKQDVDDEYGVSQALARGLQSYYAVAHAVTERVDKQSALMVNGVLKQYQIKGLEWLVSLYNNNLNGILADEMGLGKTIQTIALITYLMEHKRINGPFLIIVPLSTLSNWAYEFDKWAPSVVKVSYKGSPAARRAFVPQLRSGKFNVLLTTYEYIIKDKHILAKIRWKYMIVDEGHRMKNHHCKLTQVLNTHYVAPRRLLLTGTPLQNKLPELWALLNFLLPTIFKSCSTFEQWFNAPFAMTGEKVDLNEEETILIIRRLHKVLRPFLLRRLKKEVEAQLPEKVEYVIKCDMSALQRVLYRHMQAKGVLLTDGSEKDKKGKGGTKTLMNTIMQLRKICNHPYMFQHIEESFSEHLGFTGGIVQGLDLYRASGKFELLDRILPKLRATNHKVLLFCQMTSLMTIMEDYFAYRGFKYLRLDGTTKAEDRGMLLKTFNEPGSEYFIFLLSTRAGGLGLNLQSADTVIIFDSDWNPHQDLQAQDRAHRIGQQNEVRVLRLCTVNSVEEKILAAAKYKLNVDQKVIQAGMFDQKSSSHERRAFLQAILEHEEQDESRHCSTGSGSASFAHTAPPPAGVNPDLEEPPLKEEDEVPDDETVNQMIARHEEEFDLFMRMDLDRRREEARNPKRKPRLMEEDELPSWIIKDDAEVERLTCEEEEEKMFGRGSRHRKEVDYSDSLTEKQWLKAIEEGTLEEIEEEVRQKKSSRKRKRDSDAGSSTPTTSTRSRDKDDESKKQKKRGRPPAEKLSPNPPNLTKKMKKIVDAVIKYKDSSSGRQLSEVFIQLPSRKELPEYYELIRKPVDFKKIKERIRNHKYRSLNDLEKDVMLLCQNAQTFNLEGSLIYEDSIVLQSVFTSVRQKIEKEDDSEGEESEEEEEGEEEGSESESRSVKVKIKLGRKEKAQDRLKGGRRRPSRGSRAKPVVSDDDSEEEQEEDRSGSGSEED
Procedure, shortened: as §1

Row | Compound | DC50 (SMARCA2-HiBiT) [nM] | Dmax (SMARCA2-HiBiT) [%] | DC50 (SMARCA4-HiBiT) [nM] | Dmax (SMARCA4-HiBiT) [%]
1 | CN(C1CCN(CC2CCN(c3ccc4c(c3)C(=O)N(C3CCC(=O)NC3=O)C4=O)CC2)CC1)C1C[C@@H]2CNc3nnc(-c4ccccc4O)cc3N2C1 (stereo partly drawn) [Example 29, 2-(2,6-dioxopiperidin-3-yl)-5-(4-((4-(((6aR)-2-(2-hydroxyphenyl)-5,6,6a,7,8,9-hexahydropyrrolo[1′,2′:4,5]pyrazino[2,3-c]pyridazin-8-yl)(methyl)amino)piperidin-1-yl)methyl)piperidin-1-yl) isoindoline-1,3-dione] | < 10 | > 85 | < 10 | > 85
2 | O=C1CCC(N2Cc3cc(C4CCN(C5CCN(CCCN6CCN7c8cc(-c9ccccc9O)nnc8NC[C@H]7C6)C5)CC4)ccc3C2=O)C(=O)N1 (stereo partly drawn) [Example 208, 3-(5-(1-(1-(3-((S)-2-(2-hydroxyphenyl)-5,6,6a,7,9,10-hexahydro-8H-pyrazino[1′,2′:4,5]pyrazino[2,3-c]pyridazin-8-yl)propyl)pyrrolidin-3-yl)piperidin-4-yl)-1-oxoisoindolin-2-yl)piperidine-2,6-dione] | < 10 | 75 to 85 | < 10 | 50 to 75
3 | O=C1CCC(N2C(=O)c3ccc(N4CCC(CN5CCC(N6CCN7c8cc(-c9ccccc9O)nnc8NC[C@H]7C6)CC5)CC4)cc3C2=O)C(=O)N1 (stereo partly drawn) [Example 30, 2-(2,6-dioxopiperidin-3-yl)-5-(4-((4-((S)-2-(2-hydroxyphenyl)-5,6,6a,7,9,10-hexahydro-8H-pyrazino[1′,2′:4,5]pyrazino[2,3-c]pyridazin-8-yl)piperidin-1-yl)methyl)piperidin-1-yl)isoindoline-1,3-dione] | < 10 | > 85 | < 10 | > 85
4 | O=C1CCC(N2Cc3cc(OCCCN4CCC(N5CCN6c7cc(-c8ccccc8O)nnc7NC[C@H]6C5)CC4)ccc3C2=O)C(=O)N1 (stereo partly drawn) [Example 237, 3-(5-(3-(4-((S)-2-(2-hydroxyphenyl)-5,6,6a,7,9,10-hexahydro-8H-pyrazino[1′,2′:4,5]pyrazino[2,3-c]pyridazin-8-yl)piperidin-1-yl)propoxy)-1-oxoisoindolin-2-yl)piperidine-2,6-dione] | < 10 | > 85 | < 10 | 75 to 85
5 | CC1CN(CC2CCN(c3ccc4c(c3)C(=O)N(C3CCC(=O)NC3=O)C4=O)CC2)CCC1CN1CCN2c3cc(-c4ccccc4O)nnc3NC[C@H]2C1 (stereo partly drawn) [Example 161, 2-(2,6-dioxopiperidin-3-yl)-5-(4-((4-(((S)-2-(2-hydroxyphenyl)-5,6,6a,7,9,10-hexahydro-8H-pyrazino[1′,2′:4,5]pyrazino[2,3-c]pyridazin-8-yl)methyl)-3-methylpiperidin-1-yl)methyl)piperidin-1-yl)isoindoline-1,3-dione] | < 10 | > 85 | < 10 | > 85
6 | N#CC1(CN2CCC(CN3CCN4c5cc(-c6ccccc6O)nnc5NC[C@H]4C3)CC2)CCN(c2ccc3c(c2)C(=O)N(C2CCC(=O)NC2=O)C3=O)CC1 (stereo partly drawn) [Example 179, 1-[2-(2,6-dioxopiperidin-3-yl)-1,3-dioxoisoindol-5-y]-4-[[4-[[(10S)-4-(2-hydroxyphenyl)-1,5,6,8,12-pentazatricyclo[8.4.0.02,7]tetradeca-2,4,6-trien-12-yl]methyl]piperidin-1-yl]methyl]piperidine-4-carbonitrile] | < 10 | 50 to 75 | < 10 | 50 to 75
7 | C[C@H]1CN2c3cc(-c4ccccc4O)nnc3NC[C@H]2CN1C[C@H]1[C@@H]2CN(CC3CCN(c4ccc5c(c4)C(=O)N(C4CCC(=O)NC4=O)C5=O)C[C@@H]3F)C[C@@H]21 (stereo in doubt) [Example 199, 2-(2,6-dioxopiperidin-3-yl)-5-[(3R,4R)-3-fluoro-4-[[(1S,5R)-6-[[(10S,13S)-4-(2-hydroxyphenyl)-13-methyl-1,5,6,8,12-pentazatricyclo [8.4.0.02,7]tetradeca-2(7),3,5-trien-12-yl]methyl]-3-azabicyclo [3.1.0]hexan-3-yl]methyl]piperidin-1-yl]isoindole-1,3-dione] | < 10 | > 85 | < 10 | 50 to 75
8 | O=C1CCC(N2C(=O)c3ccc(Nc4cnn(CCN5CCC(N6CCN7c8cc(-c9ccccc9O)nnc8NC[C@H]7C6)CC5)c4)cc3C2=O)C(=O)N1 (stereo partly drawn) [Example 245, 2-(2,6-dioxopiperidin-3-yl)-5-((1-(2-(4-((S)-2-(2-hydroxyphenyl)-5,6,6a,7,9,10-hexahydro-8H-pyrazino[1′,2′:4,5]pyrazino[2,3-c]pyridazin-8-yl)piperidin-1-yl)ethyl)-1H-pyrazol-4-yl)amino)isoindoline-1,3-dione] | < 10 | 50 to 75 | 10 to 100 | 50 to 75

Other lines, results leading:

Row | DC50 (SMARCA2-HiBiT) [nM] | Dmax (SMARCA2-HiBiT) [%] | DC50 (SMARCA4-HiBiT) [nM] | Dmax (SMARCA4-HiBiT) [%] | Compound
9 | < 10 | > 85 | < 10 | > 85 | O=C1CCC(N2C(=O)c3ccc(N4CCC(CN5CC6CC5CC6CN5CCN6c7cc(-c8ccccc8O)nnc7NC[C@H]6C5)CC4)cc3C2=O)C(=O)N1 (stereo partly drawn) [Example 136, 2-(2,6-dioxopiperidin-3-yl)-5-(4-((5-(((S)-2-(2-hydroxyphenyl)-5,6,6a,7,9,10-hexahydro-8H-pyrazino[1′,2′:4,5]pyrazino[2,3-c]pyridazin-8-yl)methyl)-2-azabicyclo[2.2.1]heptan-2-yl)methyl)piperidin-1-yl) isoindoline-1,3-dione]
10 | < 10 | 50 to 75 | 10 to 100 | 75 to 85 | CN1CCN(c2ccc3c(c2)C(=O)N(C2CCC(=O)NC2=O)C3=O)CC1CN1C[C@@H]2[C@H](C1)[C@H]2CN1CCN2c3cc(-c4ccccc4O)nnc3NC[C@H]2C1 (stereo partly drawn) [Example 56, 2-(2,6-dioxopiperidin-3-yl)-5-(3-(((1R,5S,6r)-6-(((S)-2-(2-hydroxyphenyl)-5,6,6a,7,9,10-hexahydro-8H-pyrazino[1′,2′:4,5]pyrazino[2,3-c]pyridazin-8-yl)methyl)-3-azabicyclo[3.1.0]hexan-3-yl)methyl)-4-methylpiperazin-1-yl)isoindoline-1,3-dione]
11 | < 10 | 50 to 75 | 10 to 100 | 75 to 85 | O=C1CCC(N2C(=O)c3ccc(N4CC(CN5CCC(CN6CCN7c8cc(-c9ccccc9O)nnc8NC[C@H]7C6)CC5)C(F)(F)C4)cc3C2=O)C(=O)N1 (stereo partly drawn) [Example 191, 5-[3,3-difluoro-4-[[4-[[(10S)-4-(2-hydroxyphenyl)-1,5,6,8,12-pentazatricyclo[8.4.0.02,7]tetradeca-2(7),3,5-trien-12-yl]methyl]piperidin-1-yl]methyl]pyrrolidin-1-yl]-2-(2,6-dioxopiperidin-3-yl)isoindole-1,3-dione]
12 | < 10 | 75 to 85 | < 10 | 75 to 85 | O=C1CCC(N2C(=O)c3ccc(N4C[C@H]5CC(N6CCC(CN7CCN8c9cc(-c%10ccccc%10O)nnc9NC[C@H]8C7)CC6)[C@H]5C4)cc3C2=O)C(=O)N1 (stereo partly drawn) [Example 190, 2-(2,6-dioxopiperidin-3-yl)-5-[(1S,5R)-6-[4-[[(10S)-4-(2-hydroxyphenyl)-1,5,6,8,12-pentazatricyclo[8.4.0.02,7]tetradeca-2(7),3,5-trien-12-yl]methyl]piperidin-1-yl]-3-azabicyclo[3.2.0]heptan-3-yl]isoindole-1,3-dione]
13 | < 10 | 50 to 75 | < 10 | 50 to 75 | O=C1CCC(n2c3ccc(CCCN4CCC(N5CCN(C6C[C@@H]7CNc8nnc(-c9ccccc9O)cc8N7C6)CC5)CC4)cc3c3cccnc32)C(=O)N1 (stereo partly drawn) [Example 27, 3-(6-(3-(4-(4-((6aR)-2-(2-hydroxyphenyl)-5,6,6a,7,8,9-hexahydropyrrolo [1′,2′:4,5]pyrazino[2,3-c]pyridazin-8-yl)piperazin-1-yl)piperidin-1-yl)propyl)-9H-pyrido[2,3-b]indol-9-yl)piperidine-2,6-dione]
14 | < 10 | > 85 | < 10 | > 85 | O=C1CCC(N2Cc3ccc(N4CC(CN5C[C@@H]6[C@H](C5)[C@H]6CN5CCN6c7cc(-c8ccccc8O)nnc7NC[C@H]6C5)C4)cc3C2=O)C(=O)N1 (stereo partly drawn) [Example 108, 3-(6-(3-(((1R,5S,6r)-6-(((S)-2-(2-hydroxyphenyl)-5,6,6a,7,9,10-hexahydro-8H-pyrazino[1′,2′:4,5]pyrazino[2,3-c]pyridazin-8-yl)methyl)-3-azabicyclo[3.1,0]hexan-3-yl)methyl)azetidin-1-yl)-1-oxoisoindolin-2-yl)piperidine-2,6-dione]
15 | < 10 | 50 to 75 | < 10 | ≤ 50 | O=C1CCC(N2C(=O)c3ccc(N4CCC(CN5C[C@@H]6[C@H](C5)[C@H]6CN5CCN6c7cc(-c8ccccc8O)nnc7NC[C@H]6C5)[C@@H](F)C4)cc3C2=O)C(=O)N1 (stereo in doubt) [Example 192, 2-(2,6-dioxopiperidin-3-yl)-5-[(3R,4R)-3-fluoro-4-[[(1S,5R)-6-[[(10S)-4-(2-hydroxyphenyl)-1,5,6,8,12-pentazatricyclo[8.4.0.02,7]tetradeca-2(7),3,5-trien-12-yl]methyl]-3-azabicyclo[3.1.0]hexan-3-yl]methyl]piperidin-1-yl]isoindole-1,3-dione]
